The values that follow come from patent US9120762B2, “Salts of bicyclo-substituted pyrazolon azo derivatives, preparation method and use thereof” (Jiangsu Hengrui Medicine Co., Ltd., priority 2009, dated 2015).

Where two headings read alike, the source gives them in different places.

A short description of data set [1]: Pharmacokinetics assay in rats. The class given is in vivo, SD rats. To be noted: SD rats, intragastric, 50 mg/Kg (as free acid); for Vd/F / AUC / CL/F / half-life / MRT / Cmax / Tmax: both sexes, rat, po; for Vd/F: read-out: Apparent Distribution Volume Vz/F; for AUC: read-out: Area Under Curve AUC; for CL/F: read-out: Clearance CL/F (converted); for half-life: read-out: Half-Life t½ (converted); for MRT: read-out: Mean Residence Time MRT; for Cmax: read-out: Plasma Conc. Cmax; for Tmax: read-out: Time to peak Tmax. The method, then: The compounds of the present disclosure were administrated intragastrically to rats to determine the drug concentration in plasma at different time points by HPLC-UV. The pharmacokinetic behavior of the compounds of the present disclosure was studied and evaluated in rats. […] Healthy adult SD rats, male and female in half, were purchased from SINO-BRITSH SIPPR/BK LAB.ANIMAL LTD., Colo., License number: SCXK (Shanghai) 2003-0002 The test compound was diluted with 1% sodium carboxymethyl cellulose to 5 mg/mL (calculated as the free acid form) of suspension before use. Healthy adult SD rats, male and female in half, were divided into 23 groups. […] The plasma samples were stored at −20° C. until analysis. The rats were fed 2 hours after administration. […] Then the mixture was mixed for 3 minute using a vortexer and centrifuged for 10 minutes at 13,500 rpm. 40 μL of the supernatant was analyzed by HPLC-UV. The compartmental model of pharmacokinetics was fitted for the test compounds and the major pharmacokinetic parameters were calculated in which Cmax and tmax were the actually measured values.

A short description of data set [2]: Solubility assay in water, 0.1% hydrochloric acid and methanol. The class given is physicochemical. Here is the method:
The solubility was characterized by:
The term “very soluble” refers to that 1 g (mL) of solute can be dissolved in less than 1 mL of solvent;
The term “freely soluble” refers to that 1 g (mL) of solute can be dissolved in from 1 mL to 10 mL, not including 10 mL of solvent;
The term “soluble” refers to that 1 g (mL) of solute can be dissolved in from 10 mL to 30 mL, not including 30 mL of solvent;
The term “sparingly soluble” refers to that 1g (mL) of solute can be dissolved in from 30 mL to 100 mL, not including 100 mL of solvent;
The term “slightly soluble” refers to that 1g (mL) of solute can be dissolved in from 100 mL to 1000 mL, not including 1000 mL of solvent;
The term “very slightly soluble” refers to that 1g (mL) of solute can be dissolved in from 1000 mL to 10000 mL, not including 10000 mL of solvent;
The term “practically insoluble or insoluble” refers to that 1g (mL) of solute cannot be dissolved completely in 10000 mL of solvent.

The next data set deals with T1, human TPOR (Homo sapiens, UniProt P40238).
T1 construct: host or cells: BaF3 (murine pro-B cells), stably transfected, G418-selected
T1 sequence (P40238 26-635): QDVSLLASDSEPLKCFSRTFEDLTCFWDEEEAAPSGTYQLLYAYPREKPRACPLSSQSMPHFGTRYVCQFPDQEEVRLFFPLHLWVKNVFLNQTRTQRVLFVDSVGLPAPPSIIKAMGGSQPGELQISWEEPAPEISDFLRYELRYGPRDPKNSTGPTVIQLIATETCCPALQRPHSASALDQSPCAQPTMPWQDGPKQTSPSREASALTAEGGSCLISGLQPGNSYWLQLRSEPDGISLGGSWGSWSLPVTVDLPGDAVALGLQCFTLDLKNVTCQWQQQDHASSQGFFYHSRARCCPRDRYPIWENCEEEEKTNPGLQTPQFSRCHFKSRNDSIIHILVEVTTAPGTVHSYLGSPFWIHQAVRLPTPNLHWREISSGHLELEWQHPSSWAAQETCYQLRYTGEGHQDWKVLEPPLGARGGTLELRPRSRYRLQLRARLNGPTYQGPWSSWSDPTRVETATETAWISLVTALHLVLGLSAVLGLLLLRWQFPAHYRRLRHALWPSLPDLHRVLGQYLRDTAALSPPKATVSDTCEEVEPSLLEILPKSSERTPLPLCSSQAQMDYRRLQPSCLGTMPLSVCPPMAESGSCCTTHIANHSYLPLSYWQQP
Put plainly: Proliferation effect on BAF3-TPOR cell (CCK-8). The class given is cell-based. Conditions: rate relative to rhTPO positive control. Here is the method:
(1) Plasmid constructs: based on the TPO receptor (TPOR) sequence information from Entrez (Gene ID: 4325, Refseq: NM_005373), dual-site mutation was performed on EX-B0010-M02 plasmid by using QuikChange® Multi Site Directed Mutagenesis Kit (Stratagene). The sequence of primers containing multi-sites mutation was designed as follows: […]
The E. coli DH5α competent cells were transformed with mutated plasmid, and positive colonies were picked up through ampicillin selection. The mutation result was confirmed by sequence analysis.
(2) BAF3-TPOR stable transfected cell line: the following method was used to construct the BaF3 cell which stably over-expressed functional human TPOR. The successfully mutated EX-B0010-M02 plasmid ([…]) which expressed human TPOR and screening gene neomycin was transfected into wild-type BaF3 cells (1×10^7) by electroporation at 250V for 18 ms using an electric pulse generator (Electro Square Porator ECM830, BTX Division of Genetronic, Inc. US). The stable transfected cells BAF3-TPOR were selected with G418 (Gibco, US), then incubated in RPMI1640 medium plus 10% FBS (Gibco, US), […] G418, 5 ng/mL, rmIL-3 (Chemicon, US).
(1) Washing cells by centrifugation: a suitable amount of cell suspension was centrifuged at 1000 rpm for 5 minutes, and the supernatant was discarded. 10 mL of cell culture media without IL-3 was added. Then the resulting cell suspension was centrifuged at 1000 rpm for 5 minutes, and the supernatant was discarded.
(2) 1 mL of cell culture media without IL-3 was added to beat upon them to equality, and the number of a suitable amount of cell suspension was counted after dilution.
(3) According to the result of the cell counting, a cell suspension in a concentration of 100,000 cell/mL was prepared.
(4) 100 μL of cell suspension was transferred to each well of 96-well culture plate, and there were 3 parallel wells, that is, there were a blank control group (B), a negative control group (N), a positive control group of TPO (P) and a test compound group (S).
(5) The test compound was dissolved in DMSO to prepare a 10 mM stock solution, and then the solution was diluted with RPMI 1640 medium into a series of test samples at different concentration: 30 μM, 10 μM, 3 μM, 1 μM, 0.3 μM, 0.1 μM, 0.03 μM, 0.01 μM, 0.003 μM, 0.001 μM.
(6) 10 μL of test compound solution was transferred to each well respectively; 1 μL of rhTPO (10 ng/mL) was added to positive control well.
(7) The plates were incubated in an incubator at 5% CO2 and 37° C. for 24 hours.
(8) After incubation, 10 μL of CCK-8 solution was added to each well and the plates were incubated in the incubator for another 24 hours.
(9) OD value was detected at 450 nm by VICTORS (Perkin Elmer 1420-120) plate reader.
(1) The proliferation rate was calculated as follows: Rate=[(S−B)/(P−B)]*100%
S: OD value of wells which contain test compound.
B: OD value of blank control wells
P: OD value of positive control wells
(2) The EC50 value was calculated by Origin 7.0 software.

The mark [3] stands for this setting: 0.1% hydrochloric acid, simulated gastric fluid, 0.1% hydrochloric acid, read-out: solubility.
[4] abbreviates: methanol, organic solvent or mixture, methanol, read-out: solubility.

For the molecule `CC1=NN(c2ccc3c(c2)CCC3)C(=O)/C1=N\Nc1cccc(-c2cccc(C(=O)O)c2)c1O.NCCO.NCCO` [Example 1, (Z)-2′-hydroxy-3′-[N′-(1-indan-5-yl-3-methyl-5-oxo-1,5-dihydro-pyrazol-4-ylidene)-hydrazino]-biphenyl-3-carboxylic acid bis-(ethanolamine)], in data set [1] (SD, plasma, 50 mg/kg), the Vd/F came to 0.45 ± 0.32 L/kg, the AUC is 501 ± 178 µg·h/mL, the CL/F was 1.63 mL/min/kg and the half-life is 323 ± 56.4 min. In addition, in data set [1] (SD, plasma, 50 mg/kg), the MRT was 4.96 ± 1.16 h, the Cmax is 90100 ± 35300 ng/mL and the Tmax stood at 3.25 ± 1.5 h. Moreover, the solubility in data set [2] (setting [3]) is less than 1 µg/mL. Besides, the solubility in data set [2] (setting [4]) was found to be 1470 µg/mL. In data set [2] (water, read-out: solubility), the solubility is 3 µg/mL. The same molecule came in with an EC50 at human TPOR of 150 nM.

Turning to `CC1=NN(c2ccc3c(c2)CCCC3)C(=O)/C1=N\Nc1cccc(-c2ccc(C(=O)[O-])o2)c1[O-].[Na+].[Na+]` [Example 14, (Z)-5-(2-hydroxy-3-{N′-[3-methyl-5-oxo-1-(5,6,7,8-tetrahydro-naphthalen-2-yl)-1,5-dihydro-pyrazol-4-ylidene]-hydrazino}-phenyl)-furan-2-carboxylic acid disodium salt], in data set [1] (SD, plasma, 50 mg/kg), the Vd/F was 9.54 ± 8.03 L/kg, the AUC was found to be 132 ± 189 µg·h/mL, the half-life is 283 ± 169 min and the MRT came to 7.2 ± 2.13 h. In data set [1] (SD, plasma, 50 mg/kg), the Cmax was 17800 ± 22600 ng/mL and the Tmax amounted to 5.25 ± 1.5 h. Further, the CL/F in data set [1] (in vivo) is 40 mL/min/kg. Besides, the solubility in data set [2] (setting [3]) was less than 1 µg/mL. The solubility in data set [2] (setting [4]) is 3720 µg/mL. For the same molecule, the solubility in data set [2] (water, read-out: solubility) stood at 1880 µg/mL. This molecule came in with an EC50 on human TPOR of 19 nM.

Regarding `CC1=NN(c2ccc3c(c2)CCC3)C(=O)/C1=N\Nc1cccc(-c2ccc(C(=O)O)o2)c1O` [Example 16a, (Z)-5-{2-hydroxy-3-[N′-(1-indan-5-yl-3-methyl-5-oxo-1,5-dihydro-pyrazol-4-ylidene)-hydrazino]-phenyl}-furan-2-carboxylic acid], in data set [1] (50 mg/kg), the “Area Under Curve AUC” value turned out to be 15.0 ± 17.2 µg·h/mL, the “Clearance CL/F” value was 2.98 ± 2.75 L/h/kg, the “Half-Life t½” value is on record as 1.82 ± 0.68 h and the “Plasma Conc. Cmax” value was 6.81 ± 6.23 µg/mL. In data set [1] (SD, plasma, 50 mg/kg), the MRT was found to be 4.03 ± 2.55 h and the Tmax is 2.75 ± 0.96 h. In addition, in data set [2] (setting [3]), the solubility was less than 1 µg/mL. The molecule also came in with a solubility in data set [2] (methanol) of less than 1 µg/mL. In data set [2] (water), this molecule came in with a solubility of less than 1 µg/mL. The same molecule had an EC50 at human TPOR of 100 nM.

For the molecule `CC1=NN(c2ccc3c(c2)C(C)(C)CC3)C(=O)/C1=N\Nc1cccc(-c2ccc(C(=O)O)o2)c1O.NCCO.NCCO` [Example 4, (Z)-5-(3-{N′-[1-(3,3-dimethyl-indan-5-yl)-3-methyl-5-oxo-1,5-dihydro-pyrazol-4-ylidene]-hydrazino}-2-hydroxy-phenyl)-furan-2-carboxylic acid bis-(ethanolamine)], in data set [1] (SD, plasma, 50 mg/kg), the Vd/F amounted to 58.1 ± 47.7 L/kg, the AUC came to 19 ± 12.6 µg·h/mL, the CL/F was 40.3 mL/min/kg and the half-life is 1620 ± 1890 min. For the same molecule, in data set [1] (SD, plasma, 50 mg/kg), the MRT came to 38.3 ± 36.5 h, the Cmax was 2320 ± 1800 ng/mL and the Tmax amounted to 2.25 ± 2.47 h. The solubility in data set [2] (setting [3]) was 24 µg/mL. Besides, in data set [2] (setting [4]), the solubility was found to be 19000 µg/mL. For the same molecule, the solubility in data set [2] (water, read-out: solubility) stood at 2900 µg/mL. Also, on human TPOR, the EC50 was found to be 25 nM.

As to `CC1=NN(c2ccc3c(c2)C(C)(C)CC3)C(=O)/C1=N\Nc1cccc(-c2ccc(C(=O)O)o2)c1O` [Example 4h, (Z)-5-(3-{N′-[1-(3,3-dimethyl-indan-5-yl)-3-methyl-5-oxo-1,5-dihydro-pyrazol-4-ylidene]-hydrazino}-2-hydroxy-phenyl)-furan-2-carboxylic acid], in data set [1] (50 mg/kg), the “Area Under Curve AUC” value came out at 9.5 ± 8.3 µg·h/mL, the “Clearance CL/F” value is 3.26 ± 1.93 L/h/kg, the “Half-Life t½” value is on record as 19.8 ± 16.4 h and the “Mean Residence Time MRT” value was 31.7 ± 24.6 h. Further, in data set [1] (50 mg/kg), the “Plasma Conc. Cmax” value was 1.29 ± 0.38 µg/mL. In addition, in data set [1] (SD, plasma, 50 mg/kg), the Tmax came to 2.5 ± 1 h. In data set [2] (setting [3]), the solubility was less than 1 µg/mL. This molecule yielded a solubility in data set [2] (methanol) of less than 1 µg/mL. Also, in data set [2] (water, read-out: solubility), the solubility was less than 1 µg/mL. In addition, on human TPOR, a half-maximal response (EC50) required 32 nM.

As usually defined, the AUC is the area under the concentration-time curve, a measure of exposure. By half-life is commonly meant the time needed for the level to fall by half in the phase considered. One may read the MRT as a mean duration of stay, worked out from the concentration-time curve. By Cmax is commonly meant the maximum level reached in the sampled fluid or tissue. One may read the Tmax as the time from dosing to the highest level. Usually solubility stands for the concentration that dissolves in the medium under given conditions. What is called EC50 is the midpoint of the concentration-response curve.
